Patent publication US10941121B2 (AZIENDA OSPEDALIERA UNIVERSITARIA SENESE, priority 2015, dated 2021)
pEC50, pIC50: −log10 of the molar value. Where two headings read alike, the source gives them in different places.

Columns and labels:
JEV strain (NJ2008) = test: JEV infectious cell culture system, plaque formation assay in BHK-21 cells; conditions: Japanese encephalitis virus, BHK-21, read-out: JEV EC50
[1] = Cytotoxicity, MTT method in LUNET cells; assay type: cell-based; conditions: human; MMT method in LUNET cells; read-out: CC50 (μM) non-infected cells
Method: Toxicity (CC50) was analysed in the Lunet/HuH7 cells by the addition of 10 μL of MTT (3-(4,5-dimethylthiazol-2-yl)-2,5-diphenyltetrazolium bromide) per well. After 4 h of incubation at 37° C. in a humidified atmosphere with 5% CO2, the amount of formazan produced was quantified spectrophotometrically at 550/620 nm (C. Pannecouque et al, Nature protocol 2008; 3 (3): 427-434). […] These assays were done in duplicate.

[2] = Cytotoxicity in the JEV cell culture system; conditions: hamster
[3] = test system: Hepatitis C Virus (HCV) replicon system; test: HCV replicon system, luciferase method in LucUbiNeo-ET cells; conditions: for EC50: Hepatitis C virus, 48 h, read-out: EC50 (μM) HCV replicon system
DDX3 Helicase [4] = biological target: T1, DDX3 Helicase (Homo sapiens, UniProt O00571); test: biochemical
T1 sequence (O00571 whole entry): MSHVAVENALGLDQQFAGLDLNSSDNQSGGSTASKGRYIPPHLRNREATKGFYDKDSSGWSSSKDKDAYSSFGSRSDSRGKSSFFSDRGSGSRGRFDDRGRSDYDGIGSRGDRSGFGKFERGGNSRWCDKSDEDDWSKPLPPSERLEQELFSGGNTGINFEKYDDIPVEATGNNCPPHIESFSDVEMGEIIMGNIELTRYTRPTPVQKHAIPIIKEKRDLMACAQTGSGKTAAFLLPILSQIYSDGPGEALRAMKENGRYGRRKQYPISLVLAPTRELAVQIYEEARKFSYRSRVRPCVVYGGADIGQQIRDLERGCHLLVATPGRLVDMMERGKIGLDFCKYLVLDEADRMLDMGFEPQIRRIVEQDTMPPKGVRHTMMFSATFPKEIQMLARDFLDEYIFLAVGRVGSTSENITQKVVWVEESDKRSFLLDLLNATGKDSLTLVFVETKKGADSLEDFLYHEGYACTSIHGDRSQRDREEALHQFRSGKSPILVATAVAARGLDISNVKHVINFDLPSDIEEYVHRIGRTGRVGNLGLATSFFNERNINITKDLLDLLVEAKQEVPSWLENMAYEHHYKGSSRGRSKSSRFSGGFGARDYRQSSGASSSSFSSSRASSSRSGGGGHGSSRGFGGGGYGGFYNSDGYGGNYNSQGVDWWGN

[5] = test system: EBOV expressing GFP (EBOV/GFP); assay type: cell-based, Ebola virus
[6] = test system: HIV-1 wild-type reference strain NL4-3; test: HIV-1 phenotypic assay, MT-2 cells then TZM-bl cells, luciferase; assay type: cell-based; conditions: Human immunodeficiency virus 1, NL43; first cycle in MT-2 cells, additional round in TZM-bl cells
DDX3 Helicase [7] = biological target: T1, DDX3 Helicase; conditions: for IC50: read-out: ID50 (μM) against DDX3 Helicase, n.a. = compound not active
[8] = Cytotoxicity in Huh7 cells, nuclei counts; conditions: human
HIV (PBMC) = test: HIV infectious cell culture system in PBMC, HIV-1 RNA in supernatant; conditions: Human immunodeficiency virus 1, PBMC, 72 h, read-out: EC50 HIV (PBMC) 72 h
[9] = Cytotoxicity in PBMC, CellTiter 96 MTS viability assay; assay type: cell-based; conditions: human, human primary PBMCs

| SMILES | pEC50 (JEV strain (NJ2008)) | CC50 [1] [µM] | CC50 [2] [µM] | EC50 [3] [µM] | pIC50 (DDX3 Helicase [4]) | pEC50 [6] | other results |
| --- | --- | --- | --- | --- | --- | --- | --- |
| CCOCc1cn(-c2ccc(NC(=O)Nc3ccccc3C)cc2)nn1 [Compound 20e] | 4.60 | 51.8 | > 50 | 8.55 | 6.03 |  |  |
| CCCCn1nnc(-c2ccc(NC(=O)Nc3ccccc3C(F)(F)F)cc2)n1 [Compound 51, 1-(4-(2-butyl-2H-tetrazol-5-yl)phenyl)-3-(2-(trifluoromethyl)phenyl)urea] |  | 6.7 |  | 0.6 | 6.10 | 5.26 | Normalized % infected cells [5]: 60%; effect on EBOV replication, in words [5]: able to affect EBOV replication |
| CC(C)CCc1cn(-c2ccc(NC(=O)Nc3cccc(F)c3)cc2)nn1 [Compound 55b, 1-(3-fluorophenyl)-3-(4-(4-isopentyl-1H-1,2,3-triazol-1-yl)phenyl)urea] |  | 183 |  | 0.2 |  | 5.74 | DDX3 helicase activity compared with EI01D (DDX3 Helicase [7]; in words): approximately ten-fold more active; IC50 (DDX3 Helicase [7]): 0.2 µM; activity against HCV, in words [3]: best activity |
| CCOCc1cn(-c2ccc(NC(=O)Nc3cc(C(C)C)ccc3C)cc2)nn1 [Compound 55e, 1-(4-(4-(ethoxymethyl)-1H-1,2,3-triazol-1-yl)phenyl)-3-(5-isopropyl-2-methylphenyl) urea] | 5.48 | 245 | > 50 | 1 | 6.05 |  |  |
| CC(C)CCc1cn(-c2ccc(NC(=O)Nc3cccc4cnccc34)cc2)nn1 [Compound 55f, 1-(4-(4-isopentyl-1H-1,2,3-triazol-1-yl)phenyl)-3-(isoquinolin-5-yl)urea] | 4.48 | > 312 | > 50 | 0.9 | 6.30 |  |  |
| CCCCc1cn(-c2ccc(NC(=O)Nc3cc(OC4CCCC4)ccc3C)cc2)nn1 [Compound 55h, 1-(4-(4-butyl-1H-1,2,3-triazol-1-yl)phenyl)-3-(5-(cyclopentyloxy)-2-methylphenyl)urea] |  |  |  |  | 7.00 | 4.79 |  |
| CCOCc1cn(-c2ccc(NC(=O)Nc3cccc(F)c3)cc2)nn1 [Compound 55o, 1-(4-(4-(ethoxymethyl)-1H-1,2,3-triazol-1-yl)phenyl)-3-(3-fluorophenyl)urea] |  |  |  |  |  | 4.67 |  |
| O=[N+]([O-])c1cccc(S(=O)(=O)Nc2ccccc2O)c1 [Compound 58a, N-(2-hydroxy)-3-nitro-phenylbenzenesulfonamide] | 5.00 | 215 | > 50 | 204 | 6.43 | 4.69 | CC50 at 48 h ([8]; DENV CC50, Huh7 cells, DENV experiment): 99.4 µM; CC50 at 48 h ([8]; WNV CC50, Huh7 cells, WNV experiment): 60.9 µM |
| CCOCc1cn(-c2cccc(S(=O)(=O)Nc3ccccc3C(F)(F)F)c2)nn1 [Compound 66d, 3-(4-(ethoxymethyl)-1H-1,2,3-triazol-1-yl)-N-(2-(trifluoromethyl)phenyl) benzenesulfonamide] | 5.21 | 58.6 | > 50 | > 58.6 |  |  | IC50 (DDX3 Helicase [7]): 0.4 µM; pEC50 (HIV (PBMC)): 4.59; Normalized % infected cells [5]: 80%; effect on EBOV replication, in words [5]: able to affect EBOV replication; CC50 at 24 h ([9]; 24 h): 450 µM; CC50 at 48 h ([9]; 48 h): 357 µM; CC50 at 72 h ([9]; 72 h): 703 µM |
| COc1cc(NC(=O)Nc2ccccc2C(F)(F)F)ccc1-n1cc(CCC(C)C)nn1 [Compound 80, 1-(4-(4-isopentyl-1H-1,2,3-triazol-1-yl)-3-methoxyphenyl)-3-(2-(trifluoromethyl)phenyl)urea] |  |  |  |  | 6.40 | 5.13 |  |
| CC(C)CCc1cn(-c2ccc(NC(=O)Nc3ccccc3C(F)(F)F)cn2)nn1 [Compound 86, 1-(6-(4-isopentyl-1H-1,2,3-triazol-1-yl)pyridin-3-yl)-3-(2-(trifluoromethyl)phenyl)urea] |  |  |  |  | 6.00 | 5.52 |  |
| CCCCc1cc(-c2ccc(NC(=O)Nc3ccccc3C(F)(F)F)cc2)no1 [Compound 102, 1-(4-(5-butylisoxazol-3-yl)phenyl)-3-(2-(trifluoromethyl)phenyl)urea] |  |  |  |  |  | 4.14 |  |
| CCCCc1nc(-c2ccc(NC(=O)Nc3ccccc3C(F)(F)F)cc2)no1 [Compound 106, 1-(4-(5-butyl-1,2,4-oxadiazol-3-yl)phenyl)-3-(2-(trifluoromethyl)phenyl)urea] |  |  |  |  | 7.00 | 5.66 |  |
| CCCCc1nnc(-c2ccc(NC(=O)Nc3ccccc3C(F)(F)F)cc2)o1 [Compound 112, 1-(4-(5-butyl-1,3,4-oxadiazol-2-yl)phenyl)-3-(2-(trifluoromethyl)phenyl)urea] |  |  |  |  | 6.00 | 5.26 |  |
| CCCCc1nc(-c2cccc(S(=O)(=O)Nc3ccccc3C(F)(F)F)c2)no1 [Compound 134, 3-(5-butyl-1,2,4-oxadiazol-3-yl)-N-(2-(trifluoromethyl)phenyl)benzenesulfonamide] |  |  |  |  | 6.00 | 5.51 |  |
